Assay results reported in patent US20040259865A1, “Pyrimidone compounds and pharmaceutical compositions containing the same” (priority 2001, published 2004).
Read-outs that look alike come from different tables or passages of the source.

Assays:
[1] = test system: guinea pig distal colon longitudinal muscles; settings: electrical stimulation, cited from earlier work; for pA2 value of the antagonistic action: against relaxing action of NECA
[2] = test system: guinea pig distal colon longitudinal muscles; settings: cited from earlier work; for EC50: KCl in the presence of tetrodotoxin, read-out: Relaxing action EC50
colon tract [3] = test: Contraction of the colon tract with Carbachol; set-up: species or system rat
Procedure: (§1) The abdomen of a rat under anesthesia with ether was opened, and from the rectum to the cecum was excised therefrom and soaked in ice-cooled Tyrode solution (containing 136 mM NaCl, 2.7 mM KCl, 0.4 mM NaH2PO4.2H2O, 5.6 mM glucose, 11.9 mM NaHCO3, 1 mM MgCl2.6H2O, 1.8 mM CaCl2). Surrounding connective tissues were removed, and the intestinal tract was cut at positions apart by 1.5 cm from the rectum and by 3 cm from the cecum, to give a colon tract of about 3 cm in full length. Both the terminals of the colon tract were pinched respectively with Serrefines (trade name) to which a string had been connected, and the colon tract with the side of the cecum facing upward was immediately suspended in a Magnus tube filled with Tyrode solution previously warmed at 37° C., and then equilibrated by bubbling with a gas (O2/CO2=95/5). The string connected to the Serrefines (trade name) at the side of the cecum was suspended, and the change in the length of the colon tract was detected with an amplifier for strain pressure (Nihon Kohden Corporation).
Carbachol (Sigma) at each concentration diluted 100-fold was added accumulatively in a volume of 1/100 to the Magnus tube, and the change in the length of the colon tract was measured, and the length thereof in the absence of Carbachol was regarded as 0% contraction, and the length thereof in the presence of 1.44 μM Carbachol was regarded as 100% contraction. In the experiment, 3 samples were used.

SD IGS rats [4] = test: Evaluation of defecation-promoting action (Tables 8 and 10); format: in vivo, rat
Text: For example, the defecation-promoting actions of 8-phenyltheophylline (“8-PT” in the table below) and 5-[6-amino-8-(3-fluorophenyl)-9H-9-purinyl]-1-methyl-1,2-di hydro-2-pyridinone (Compound II in the table below) disclosed in Example Number 5 described in WO 2001/2400 were as shown below. 8-PT can be easily produced according to the description of Drug Development Research 47: 45-53 (1999), or is easily available as a commercial product (in this test, it was purchased from Sigma).
That is, SD IGS rats (6- to 7-weeks-old, from Charles River) were placed in cages (3 animals/cage) and preliminarily allowed food and water ad libitum and raised for 1 week. On the day of the experiment, their weight was measured, a water-absorbing sheet was placed below each cage, and the animals were fasted but allowed water ad libitum throughout the experiment. Thee hours after fasting was initiated, the fecal pellets were recovered from each cage and observed for abnormality before the experiment, and then the compound suspended in 0.5% (w/v) methyl cellulose (MC) was orally administered in a dose of 5 ml/kg. On one hand, 0.5% (w/v) MC only was orally given to the control group. After administration of the compound, the rats were returned to the cage provided with a new water-absorbing sheet, and 180 minutes after the administration, the fecal pellets on the water-absorbing sheet were recovered from each cage, and the external appearance was observed, and the number of fecal pellets was counted. The number of fecal pellets is expressed per each cage.

SD IGS rats [5] = test: Defecation-promoting action in rat (Test Example 2); format: in vivo; settings: for The number of fecalpellets/3 rats: 180 minutes after administration
Procedure: (§2) SD IGS rats (6-weeks-old, from Charles River) were placed in cages (3 animals/cage) and preliminarily allowed food and water ad libitum and raised for 1 week. On the day of the experiment, their weight was measured, a water-absorbing sheet was placed below each cage, and the animals were fasted but allowed water ad libitum throughout the experiment. Three hours after fasting was initiated, the fecal pellets were recovered from each cage and observed for abnormality before the experiment, and then the compound suspended or dissolved in 0.5% (W/V) methyl cellulose (MC) was orally administered into each rat in a dose of 5 ml/kg. On one hand, 0.5% (W/V) MC only was orally given to the control group. After administering the compound, the rats were returned to the cage provided with anew water-absorbing sheet of known weight, and 180 minutes after the administration, the fecal pellets on the water-absorbing sheet were recovered from each cage, and the external appearance was observed, and the number of fecal pellets was counted. The number of fecal pellets is expressed per each cage (Table 4). After the fecal pellets were recovered, the water-absorbing sheet was weighed, and the weight determined by subtracting the initial weight of the water-adsorbing sheet from the weight after the experiment was regarded as the volume of urine and expressed as the volume of urine per 100 g of the body weight (Table 4).

[6] = Urine volume / diuretic action in rat (Test Example 2); format: in vivo; settings: for Urine Volume (g/100 g body weight): 180 minutes
Procedure: as §2

SD IGS rats [7] = test: Contribution of A2b inhibition to defecation-promoting action (Test Example 3); format: in vivo, rat; settings: 180 minutes
Procedure: as §2
After administering the compounds, the rats were returned to the cage under which a new water-absorbing sheet had been installed, and after 180 minutes, the fecal pellets on the water-absorbing sheet were recovered from each cage, and the outward appearance was observed and the number of fecal pellets was counted. The number of fecal pellets is expressed per cage (Table 5).

colon tract [8] = test: Inhibitory effect of adenosine receptor antagonist on suppressing action of NECA on Carbachol-stimulated contraction of the colon tract; set-up: species or system rat; settings: for Contraction (%) Mean: Carbachol 0.3 μM + NECA 1 μM = 0%, Carbachol 0.3 μM = 100%
Procedure: as §1
(§3) In the experiment, 3 samples were used.

colon tract [9] = test: Inhibitory effect of NECA on Carbachol-stimulated contraction of the colon tract; set-up: species or system rat; settings: Carbachol 1.44 μM (singly added) = 100%
Procedure: as §1, with “Surrounding” for “The abdomen of a rat under anesthesia with ether was opened, and from the rectum to the cecum was excised therefrom and soaked in ice-cooled Tyrode solution (containing 136 mM NaCl, 2.7 mM KCl, 0.4 mM NaH2PO4.2H2O, 5.6 mM glucose, 11.9 mM NaHCO3, 1 mM MgCl2.6H2O, 1.8 mM CaCl2). Surrounding”
as §3

[10] = 3 mg/kg oral, Table 8, n = 4 cages/group
[11] = 10 mg/kg oral, Table 8, n = 4 cages/group
[12] = against NECA, KCl + tetrodotoxin

**Q.** For `CCNC(=O)[C@H]1O[C@@H](n2cnc3c(N)nc(NCCc4ccc(CCC(=O)O)cc4)nc32)[C@H](O)[C@@H]1O` [CGS21680, 2-p-[2-carboxyethyl]phenetylamino-5′-N-ethylarboxyamide adenosine], which “Relaxing action (in words)” value [1] is on record?
**A.** The value was “very weak”.

**Q.** What about the “Relaxing action (in words)” value ([2]; 1 μM, KCl + tetrodotoxin) of the same compound?
**A.** Its value is “did not act thereon”.

**Q.** For `OC[C@H]1O[C@@H](n2cnc3c(NC4CCCC4)ncnc32)[C@H](O)[C@@H]1O` [CPA], which EC50 [2] is on record?
**A.** The EC50 was 12.6 µM.

**Q.** What does the source list for `C[N+](C)(C)CCOC(N)=O` [Carbachol]?
**A.** Contraction (%) Mean (colon tract [3]; Carbachol 0.01 μM, 1.44 μM Carbachol = 100%): 1.4%; Contraction (%) Mean (colon tract [3]; Carbachol 0.04 μM, 1.44 μM Carbachol = 100%): 24.5%; Contraction (%) Mean (colon tract [3]; Carbachol 0.14 μM, 1.44 μM Carbachol = 100%): 69.1%; Contraction (%) Mean (colon tract [3]; Carbachol 0.44 μM, 1.44 μM Carbachol = 100%): 87.0%; Contraction (%) Mean (colon tract [3]; Carbachol 1.44 μM (defined as 100%)): 100.0%

**Q.** What does the source list for `Cn1cc(-n2c(-c3cccc(F)c3)nc3c(N)ncnc32)ccc1=O` [Compound II, 5-[6-amino-8-(3-fluorophenyl)-9H-9-purinyl]-1-methyl-1,2-di hydro-2-pyridinone]?
**A.** The number of fecalpellets/3 rats (SD IGS rats [4]; 1 mg/kg oral, Table 8, n = 4 cages/group): 12.5 ± 1.44 fecalpellets/3 rats; The number of fecalpellets/3 rats (SD IGS rats [4]; [10]): 18.5 ± 1.94 fecalpellets/3 rats; The number of fecalpellets/3 rats (SD IGS rats [4]; [11]): 20.75 ± 1.70 fecalpellets/3 rats

**Q.** With `CCCn1c(=O)c2[nH]c(C3CCCC3)nc2n(CCC)c1=O` [DPCPX] as the compound, how does the “pA2 value of the antagonistic action” value [1] read?
**A.** The value was 8.8.

**Q.** What about the pA2 value ([2]; against CPA, KCl + tetrodotoxin) of the same compound?
**A.** The pA2 value was 7.0.

**Q.** And the pA2 value [2, 12]?
**A.** Its pA2 value is 6.6.

**Q.** What does the source list for `Nc1nc(N)c(-c2ccncc2)c(-c2cccc(F)c2)n1` [Example 1, 6-(3-Flurophenyl)-5-(4-pyridyl)-2,4-pyrimidine diamine]?
**A.** The number of fecalpellets/3 rats (SD IGS rats [4]; 3 mg/kg oral, Table 10, n = 6 cages/group): 14.83 ± 1.82 fecalpellets/3 rats; The number of fecalpellets/3 rats (SD IGS rats [4]; 10 mg/kg oral, Table 10, n = 6 cages/group): 23.17 ± 2.94 fecalpellets/3 rats

**Q.** For `Cn1c(=O)c2[nH]c(-c3ccccc3)nc2n(C)c1=O` [Example 8-PT, 8-phenyltheophylline], which “pA2 value of the antagonistic action” value [1] is on record?
**A.** Its value is 6.5.

**Q.** What about the “The number of fecalpellets/3 rats” value (SD IGS rats [4]; [10]) of the same compound?
**A.** The value was 8.75 ± 1.75 fecalpellets/3 rats.

**Q.** What about the “The number of fecalpellets/3 rats” value (SD IGS rats [4]; [11]) of the same compound?
**A.** The value was 13.75 ± 0.85 fecalpellets/3 rats.

**Q.** What about the pA2 value [2, 12] of the same compound?
**A.** Its pA2 value is 5.7.

**Q.** Which results are given for `CCCn1c(=O)c2nc(C34CC5CC(CC3C5)C4)[nH]c2n(CCC)c1=O` [KW 3902]?
**A.** The number of fecalpellets/3 rats (SD IGS rats [5]; 0.3 mg/kg oral): 10.67 ± 2.08 fecalpellets/3 rats; The number of fecalpellets/3 rats (SD IGS rats [5]; 1 mg/kg oral): 14.50 ± 1.18 fecalpellets/3 rats; The number of fecalpellets/3 rats (SD IGS rats [5]; 3 mg/kg oral): 12.83 ± 1.66 fecalpellets/3 rats; Dose at which the defecation-promoting action reaches the maximum (SD IGS rats [5]; rat, oral): 1 mg/kg; Defecation-promoting action (in words) (SD IGS rats [5]; rat, oral, Table 4): exhibits a defecation-promoting action; Urine Volume (g/100 g body weight) ([6]; 0.3 mg/kg oral): 2.08 ± 0.04 g/100 g body weight; Urine Volume (g/100 g body weight) ([6]; 1 mg/kg oral): 2.15 ± 0.09 g/100 g body weight; Urine Volume (g/100 g body weight) ([6]; 3 mg/kg oral): 2.01 ± 0.06 g/100 g body weight; Diuretic action (comparison in words) ([6]; rat, oral): stronger diuretic action than Compound I; The number of fecalpellets/3 rats (SD IGS rats [7]; 1 mg/kg together with KW 6002 (1 mg/kg)): 18.25 ± 1.49 fecalpellets/3 rats; The number of fecalpellets/3 rats (SD IGS rats [7]; 1 mg/kg, without KW 6002): 9.00 ± 1.08 fecalpellets/3 rats

**Q.** Which results are given for `CCCN1C(=O)N2CC(CC)N=C2c2[nH]c(C34CC5CC(CC3C5)C4)nc21` (stereo not shown) [KW 20274]?
**A.** Contraction (%) Mean (colon tract [8]; antagonist 0.1 μM): −8.2%; Contraction (%) Mean (colon tract [8]; antagonist 0.4 μM): −26.0%; Contraction (%) Mean (colon tract [8]; antagonist 1.4 μM): −40.0%; Contraction (%) Mean (colon tract [8]; antagonist 4.4 μM): −71.0%; Inhibition of the suppressing effect of NECA on the contraction (in words) (colon tract [8]; rat colon tract, Carbachol + NECA): did not show any inhibitory effect

**Q.** Which EC50 [2] does the source give for `CCNC(=O)[C@H]1O[C@@H](n2cnc3c(N)ncnc32)[C@H](O)[C@@H]1O` [NECA, 5′-N-ethylcarboxyamide adenosine] here?
**A.** The EC50 was 10.4 µM.

**Q.** What about the “Contraction (%) Mean” value (colon tract [9]; NECA 0.1 μM) of the same compound?
**A.** The value was 89.0%.

**Q.** And the “Contraction (%) Mean” value (colon tract [9]; NECA 0.4 μM)?
**A.** Its value is 75.3%.

**Q.** What about the “Contraction (%) Mean” value (colon tract [9]; NECA 14.4 μM) of the same compound?
**A.** The value was 54.9%.
